Data: US20020081733A1, “METHOD TO PREPARE DRUG-RESISTANT, NON-MALIGNANT HEMATOPOIETIC CELLS” (priority 1998, published 2002)

How the values were obtained:
CML and NL progenitors = experiment: Taxol sensitivity of NL and CML cells (methylcellulose / liquid culture then LTC); type: cell-based, human; details: increasing concentrations of taxol; FIG. 2C, 2D
Method: (§1) FIG. 2. Drug sensitivity of untransduced cells. A) NL and CML 34^+DR^+ cells were plated in a serum-free methylcellulose assay with increasing MTX concentrations to determine the MTX sensitivity of CFC. B) NL 34^+DR^− cells (LTC-IC) and CML 34^+DR^+ (Ph^+ LTC-IC) cells were incubated for 1 week in serum-free medium and cytokines with increasing MTX concentrations and then replated in LTC for 5 weeks. The number of MTX resistant LTC-IC was determined by replating LTC derived progeny in methylcellulose without […]. C) NL and CML 34^+DR^+ cells were plated directly in methylcellulose with increasing concentrations of taxol. D) NL 34^+DR^− cells (LTC-IC) and CML 34^+DR^+ (Ph^+LTC-IC) were plated in liquid culture for 7 days with increasing concentrations of taxol and then replated in LTC.
To determine the taxol sensitivity of NL and CML cells, NL and CML 34^+DR^+ and 34^+DR^− cells were plated either in liquid culture for 7 days with increasing concentrations of taxol and then replated in LTC (FIG. 2D). NL and CML cells were also plated directly in methylcellulose with increasing concentrations of taxol (FIG. 2C).

[1] = tested on: CML 34^+DR^+ CFC and LTC-IC; experiment: MTX sensitivity of NL and CML CFC and LTC-IC (serum-free methylcellulose assay / LTC); type: cell-based, human; details: increasing MTX concentrations, FIG. 2A, 2B
Method: as §1
To determine the MTX sensitivity of normal (NL) and CML CFC cells, NL and CML 34^+DR^+ cells were plated in a serum-free methylcellulose assay with increasing MTX concentrations (FIG. 2A). To determine the MTX sensitivity of NL and CML LTC-IC cells, NL 34^+DR^− cells (LTC-IC) and CML 34^+DR^+ (Ph^+ LTC-IC) cells were also incubated for I week in serum-free medium and cytokines, with increasing MTX concentrations. The cells were then replated in LTC for 5 weeks. The number of MTX resistant LTC-IC was determined by replating LTC derived progeny in methylcellulose assay without MTX (FIG. 2B).

Row | SMILES | taxol sensitivity of CML versus NL progenitors (CML and NL progenitors) | MTX sensitivity of CML 34+DR+ CFC and LTC-IC relative to NL 34+DR+ CFC and NL 34+DR− LTC-IC [1]
1 | CC(=O)O[C@H]1C(=O)[C@@]2(C)[C@H]([C@H](OC(=O)c3ccccc3)[C@]3(O)C[C@H](OC(=O)[C@H](O)[C@@H](NC(=O)c4ccccc4)c4ccccc4)C(C)=C1C3(C)C)[C@]1(OC(C)=O)CO[C@@H]1C[C@@H]2O [taxol] | equal sensitivity | –
2 | CN(Cc1cnc2nc(N)nc(N)c2n1)c1ccc(C(=O)N[C@@H](CCC(=O)O)C(=O)O)cc1 [MTX, methotrexate] | – | at least equally sensitive
